Measured values taken from PubChem BioAssay (NCI).
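Step 1: Grow cells in 96-well plates. Step 2: Expose to compound for 48 hours at 5 concentrations. Step 3: Interpolate endpoints linearly; if unreached, use highest concentration. TGI denotes the concentration required for complete inhibition of growth.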

Key:
Experiment in all cases: growth of human tumour cells (NCI), 48 h
NCI-H522 lung = tested on: NCI-H522 lung
OVCAR-4 ovarian = tested on: OVCAR-4 ovarian
BT-549 breast = tested on: BT-549 breast
LOX IMVI melanoma = tested on: LOX IMVI melanoma
UACC-257 melanoma = tested on: UACC-257 melanoma
A498 renal = tested on: A498 renal
MDA-MB-435 = tested on: MDA-MB-435
HCT-15 colon = tested on: HCT-15 colon
HOP-62 NSCLC = tested on: HOP-62 NSCLC
EKVX NSCLC = tested on: EKVX NSCLC
786-0 renal = tested on: 786-0 renal
SF-539 CNS = tested on: SF-539 CNS
COLO 205 colon = tested on: COLO 205 colon
SK-MEL-28 melanoma = tested on: SK-MEL-28 melanoma
RPMI-8226 leukemia = tested on: RPMI-8226 leukemia
SNB-19 CNS = tested on: SNB-19 CNS
HCT-116 colon = tested on: HCT-116 colon
SN12C renal = tested on: SN12C renal
NCI-H460 lung = tested on: NCI-H460 lung
CAKI-1 renal = tested on: CAKI-1 renal
UACC-62 melanoma = tested on: UACC-62 melanoma
SR leukemia = tested on: SR leukemia
NCI-H226 lung = tested on: NCI-H226 lung
K-562 leukemia = tested on: K-562 leukemia
ACHN renal = tested on: ACHN renal
HT29 colon = tested on: HT29 colon
HL-60(TB) leukemia = tested on: HL-60(TB) leukemia
OVCAR-8 ovarian = tested on: OVCAR-8 ovarian
MDA-N = tested on: MDA-N
PC-3 prostate = tested on: PC-3 prostate
TK-10 renal = tested on: TK-10 renal
SK-MEL-2 melanoma = tested on: SK-MEL-2 melanoma
CCRF-CEM leukemia = tested on: CCRF-CEM leukemia
MOLT-4 leukemia = tested on: MOLT-4 leukemia
UO-31 renal = tested on: UO-31 renal
M14 melanoma = tested on: M14 melanoma
NCI/ADR-RES ovarian = tested on: NCI/ADR-RES ovarian
NCI-H23 lung = tested on: NCI-H23 lung
SF-268 CNS = tested on: SF-268 CNS
SK-OV-3 ovarian = tested on: SK-OV-3 ovarian
SK-MEL-5 melanoma = tested on: SK-MEL-5 melanoma
KM12 colon = tested on: KM12 colon
MCF7 breast = tested on: MCF7 breast
U251 CNS = tested on: U251 CNS
T-47D breast = tested on: T-47D breast
HOP-92 NSCLC = tested on: HOP-92 NSCLC
MDA-MB-231 breast = tested on: MDA-MB-231 breast
SF-295 CNS = tested on: SF-295 CNS
MALME-3M melanoma = tested on: MALME-3M melanoma
A549 NSCLC = tested on: A549 NSCLC
OVCAR-3 ovarian = tested on: OVCAR-3 ovarian
RXF 393 renal = tested on: RXF 393 renal
IGROV1 ovarian = tested on: IGROV1 ovarian
SNB-75 CNS = tested on: SNB-75 CNS
HS 578T breast = tested on: HS 578T breast
DU-145 prostate = tested on: DU-145 prostate
OVCAR-5 ovarian = tested on: OVCAR-5 ovarian
HCC-2998 colon = tested on: HCC-2998 colon
SW-620 colon = tested on: SW-620 colon

For `Cn1c(=O)c2c(ncn2CCNC(CO)C(O)c2ccc([N+](=O)[O-])cc2)n(C)c1=O` (stereo not given), which TGI (NCI-H522 lung) is on record?
Its TGI is over 100 µM.

And the TGI (OVCAR-4 ovarian)?
Its TGI is over 100 µM.

What about the TGI (BT-549 breast) of the same compound?
The TGI was over 100 µM.

And the TGI (LOX IMVI melanoma)?
The TGI was over 100 µM.

And the TGI (UACC-257 melanoma)?
Its TGI is over 100 µM.

What about the TGI (A498 renal) of the same compound?
The TGI was over 100 µM.

And the TGI (MDA-MB-435)?
Its TGI is over 100 µM.

What about the TGI (HCT-15 colon) of the same compound?
Its TGI is over 100 µM.

And the TGI (HOP-62 NSCLC)?
The TGI was over 100 µM.

And the TGI (EKVX NSCLC)?
Its TGI is over 100 µM.

What about the TGI (786-0 renal) of the same compound?
Its TGI is over 100 µM.

What about the TGI (SF-539 CNS) of the same compound?
Its TGI is over 100 µM.

And the TGI (COLO 205 colon)?
Its TGI is over 100 µM.

And the TGI (SK-MEL-28 melanoma)?
The TGI was over 100 µM.

What about the TGI (RPMI-8226 leukemia) of the same compound?
Its TGI is over 100 µM.

And the TGI (SNB-19 CNS)?
Its TGI is over 100 µM.

What about the TGI (HCT-116 colon) of the same compound?
The TGI was over 100 µM.

And the TGI (SN12C renal)?
The TGI was over 100 µM.

What about the TGI (NCI-H460 lung) of the same compound?
The TGI was over 100 µM.

What about the TGI (CAKI-1 renal) of the same compound?
Its TGI is over 100 µM.

And the TGI (UACC-62 melanoma)?
The TGI was over 100 µM.

What about the TGI (SR leukemia) of the same compound?
The TGI was over 100 µM.

What about the TGI (NCI-H226 lung) of the same compound?
Its TGI is over 100 µM.

And the TGI (K-562 leukemia)?
Its TGI is over 100 µM.

What about the TGI (ACHN renal) of the same compound?
Its TGI is over 100 µM.

What about the TGI (HT29 colon) of the same compound?
The TGI was over 100 µM.

And the TGI (HL-60(TB) leukemia)?
Its TGI is over 100 µM.

And the TGI (OVCAR-8 ovarian)?
Its TGI is over 100 µM.

And the TGI (MDA-N)?
The TGI was over 100 µM.

What about the TGI (PC-3 prostate) of the same compound?
The TGI was over 100 µM.

And the TGI (TK-10 renal)?
The TGI was over 100 µM.

And the TGI (SK-MEL-2 melanoma)?
Its TGI is over 100 µM.

What about the TGI (CCRF-CEM leukemia) of the same compound?
Its TGI is over 100 µM.

What about the TGI (MOLT-4 leukemia) of the same compound?
Its TGI is over 100 µM.

And the TGI (UO-31 renal)?
Its TGI is over 100 µM.

And the TGI (M14 melanoma)?
The TGI was over 100 µM.

And the TGI (NCI/ADR-RES ovarian)?
Its TGI is over 100 µM.

What about the TGI (NCI-H23 lung) of the same compound?
The TGI was over 100 µM.

What about the TGI (SF-268 CNS) of the same compound?
The TGI was over 100 µM.

What about the TGI (SK-OV-3 ovarian) of the same compound?
Its TGI is over 100 µM.

What about the TGI (SK-MEL-5 melanoma) of the same compound?
Its TGI is over 100 µM.

What about the TGI (KM12 colon) of the same compound?
Its TGI is over 100 µM.

What about the TGI (MCF7 breast) of the same compound?
The TGI was over 100 µM.

What about the TGI (U251 CNS) of the same compound?
Its TGI is over 100 µM.

What about the TGI (T-47D breast) of the same compound?
The TGI was over 100 µM.

And the TGI (HOP-92 NSCLC)?
Its TGI is over 100 µM.

What about the TGI (MDA-MB-231 breast) of the same compound?
The TGI was over 100 µM.

What about the TGI (SF-295 CNS) of the same compound?
The TGI was over 100 µM.

And the TGI (MALME-3M melanoma)?
Its TGI is over 100 µM.

What about the TGI (A549 NSCLC) of the same compound?
The TGI was over 100 µM.

What about the TGI (OVCAR-3 ovarian) of the same compound?
Its TGI is over 100 µM.

Which TGI (RXF 393 renal) does the source give for `NC(N)=NCCN1CC2CCC(CC2)C1` here?
Its TGI is over 100 µM.

And the TGI (NCI-H522 lung)?
The TGI was over 100 µM.

What about the TGI (IGROV1 ovarian) of the same compound?
The TGI was over 100 µM.

And the TGI (OVCAR-4 ovarian)?
Its TGI is over 100 µM.

What about the TGI (SNB-75 CNS) of the same compound?
The TGI was 98.7 µM.

And the TGI (LOX IMVI melanoma)?
The TGI was over 100 µM.

What about the TGI (UACC-257 melanoma) of the same compound?
Its TGI is over 100 µM.

What about the TGI (HS 578T breast) of the same compound?
The TGI was over 100 µM.

And the TGI (A498 renal)?
The TGI was over 100 µM.

And the TGI (MDA-MB-435)?
Its TGI is over 100 µM.

And the TGI (HCT-15 colon)?
Its TGI is over 100 µM.

What about the TGI (HOP-62 NSCLC) of the same compound?
Its TGI is over 100 µM.

And the TGI (EKVX NSCLC)?
The TGI was over 100 µM.

What about the TGI (786-0 renal) of the same compound?
The TGI was over 100 µM.

What about the TGI (SF-539 CNS) of the same compound?
The TGI was over 100 µM.

What about the TGI (COLO 205 colon) of the same compound?
The TGI was over 100 µM.

What about the TGI (SK-MEL-28 melanoma) of the same compound?
The TGI was over 100 µM.

What about the TGI (RPMI-8226 leukemia) of the same compound?
The TGI was over 100 µM.

And the TGI (SNB-19 CNS)?
Its TGI is over 100 µM.

What about the TGI (HCT-116 colon) of the same compound?
Its TGI is over 100 µM.

And the TGI (SN12C renal)?
The TGI was over 100 µM.

And the TGI (NCI-H460 lung)?
Its TGI is over 100 µM.

And the TGI (CAKI-1 renal)?
Its TGI is over 100 µM.

And the TGI (UACC-62 melanoma)?
The TGI was over 100 µM.

And the TGI (DU-145 prostate)?
The TGI was over 100 µM.

And the TGI (SR leukemia)?
Its TGI is over 100 µM.

What about the TGI (NCI-H226 lung) of the same compound?
The TGI was over 100 µM.

What about the TGI (ACHN renal) of the same compound?
The TGI was over 100 µM.

What about the TGI (HT29 colon) of the same compound?
The TGI was over 100 µM.

And the TGI (OVCAR-8 ovarian)?
The TGI was over 100 µM.

What about the TGI (MDA-N) of the same compound?
The TGI was over 100 µM.

What about the TGI (PC-3 prostate) of the same compound?
The TGI was over 100 µM.

And the TGI (TK-10 renal)?
The TGI was over 100 µM.

What about the TGI (SK-MEL-2 melanoma) of the same compound?
The TGI was over 100 µM.

What about the TGI (OVCAR-5 ovarian) of the same compound?
The TGI was over 100 µM.

What about the TGI (MOLT-4 leukemia) of the same compound?
The TGI was over 100 µM.

What about the TGI (UO-31 renal) of the same compound?
Its TGI is over 100 µM.

And the TGI (M14 melanoma)?
Its TGI is over 100 µM.

What about the TGI (NCI/ADR-RES ovarian) of the same compound?
The TGI was over 100 µM.

And the TGI (NCI-H23 lung)?
Its TGI is over 100 µM.

And the TGI (SF-268 CNS)?
The TGI was over 100 µM.

What about the TGI (SK-OV-3 ovarian) of the same compound?
The TGI was over 100 µM.

What about the TGI (SK-MEL-5 melanoma) of the same compound?
The TGI was over 100 µM.

And the TGI (KM12 colon)?
Its TGI is over 100 µM.

What about the TGI (HCC-2998 colon) of the same compound?
The TGI was over 100 µM.

And the TGI (U251 CNS)?
The TGI was over 100 µM.

And the TGI (T-47D breast)?
Its TGI is over 100 µM.

What about the TGI (HOP-92 NSCLC) of the same compound?
Its TGI is over 100 µM.

And the TGI (MDA-MB-231 breast)?
The TGI was over 100 µM.

What about the TGI (SF-295 CNS) of the same compound?
Its TGI is over 100 µM.

And the TGI (MALME-3M melanoma)?
Its TGI is over 100 µM.

What about the TGI (A549 NSCLC) of the same compound?
The TGI was over 100 µM.

What about the TGI (SW-620 colon) of the same compound?
Its TGI is over 100 µM.

What about the TGI (OVCAR-3 ovarian) of the same compound?
Its TGI is over 100 µM.
